Values of other authors in US20160106677A1, “PHARMACEUTICAL COMPOSITION AND USES THEREOF” (Boehringer Ingelheim International GmbH, priority 2014, published 2016).

System: HbA1c
Settings: metformin on its own, in the diabetic

## CN(C)C(=N)N=C(N)N [metformin]
  average improvement in the HbA1c value: 1.0-1.5%
